Results reported in PubChem BioAssay (NCI).
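Method: 48-hour compound exposure of cells in 96-well plates, five concentrations, linear interpolation of endpoints. TGI marks complete inhibition of growth.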

Columns and labels:
Assay in all cases: growth of human tumour cells (NCI), 48 h
MALME-3M melanoma = tested on: MALME-3M melanoma
K-562 leukemia = tested on: K-562 leukemia
SK-MEL-28 melanoma = tested on: SK-MEL-28 melanoma
COLO 205 colon = tested on: COLO 205 colon
BT-549 breast = tested on: BT-549 breast
RXF 393 renal = tested on: RXF 393 renal
PC-3 prostate = tested on: PC-3 prostate
SF-268 CNS = tested on: SF-268 CNS
OVCAR-8 ovarian = tested on: OVCAR-8 ovarian
TK-10 renal = tested on: TK-10 renal
MOLT-4 leukemia = tested on: MOLT-4 leukemia
SNB-19 CNS = tested on: SNB-19 CNS
HOP-62 NSCLC = tested on: HOP-62 NSCLC
NCI-H23 lung = tested on: NCI-H23 lung
DU-145 prostate = tested on: DU-145 prostate
UACC-257 melanoma = tested on: UACC-257 melanoma
NCI-H522 lung = tested on: NCI-H522 lung
SK-OV-3 ovarian = tested on: SK-OV-3 ovarian
MDA-N = tested on: MDA-N
U251 CNS = tested on: U251 CNS
UACC-62 melanoma = tested on: UACC-62 melanoma
SK-MEL-5 melanoma = tested on: SK-MEL-5 melanoma
HCT-15 colon = tested on: HCT-15 colon
SNB-75 CNS = tested on: SNB-75 CNS
SN12C renal = tested on: SN12C renal
LOX IMVI melanoma = tested on: LOX IMVI melanoma
HL-60(TB) leukemia = tested on: HL-60(TB) leukemia
NCI-H460 lung = tested on: NCI-H460 lung
MCF7 breast = tested on: MCF7 breast
SF-539 CNS = tested on: SF-539 CNS
SK-MEL-2 melanoma = tested on: SK-MEL-2 melanoma
T-47D breast = tested on: T-47D breast
HCT-116 colon = tested on: HCT-116 colon
NCI-H226 lung = tested on: NCI-H226 lung
IGROV1 ovarian = tested on: IGROV1 ovarian
HT29 colon = tested on: HT29 colon
SR leukemia = tested on: SR leukemia
KM12 colon = tested on: KM12 colon
SF-295 CNS = tested on: SF-295 CNS
OVCAR-5 ovarian = tested on: OVCAR-5 ovarian
A498 renal = tested on: A498 renal
SW-620 colon = tested on: SW-620 colon
NCI/ADR-RES ovarian = tested on: NCI/ADR-RES ovarian
RPMI-8226 leukemia = tested on: RPMI-8226 leukemia
M14 melanoma = tested on: M14 melanoma
A549 NSCLC = tested on: A549 NSCLC
ACHN renal = tested on: ACHN renal
HOP-92 NSCLC = tested on: HOP-92 NSCLC
HS 578T breast = tested on: HS 578T breast
786-0 renal = tested on: 786-0 renal
MDA-MB-435 = tested on: MDA-MB-435
OVCAR-3 ovarian = tested on: OVCAR-3 ovarian
MDA-MB-231 breast = tested on: MDA-MB-231 breast
CAKI-1 renal = tested on: CAKI-1 renal
OVCAR-4 ovarian = tested on: OVCAR-4 ovarian
HCC-2998 colon = tested on: HCC-2998 colon
UO-31 renal = tested on: UO-31 renal
EKVX NSCLC = tested on: EKVX NSCLC
CCRF-CEM leukemia = tested on: CCRF-CEM leukemia

## O=C(Oc1cccc2cccnc12)c1cc2cc(CCl)ccc2oc1=O
MALME-3M melanoma
  TGI: 39.7 µM
K-562 leukemia
  TGI: > 100 µM
SK-MEL-28 melanoma
  TGI: > 100 µM
COLO 205 colon
  TGI: 39.9 µM
BT-549 breast
  TGI: > 100 µM
RXF 393 renal
  TGI: 49.6 µM
PC-3 prostate
  TGI: 31.3 µM
SF-268 CNS
  TGI: 52.7 µM
OVCAR-8 ovarian
  TGI: > 100 µM
TK-10 renal
  TGI: > 100 µM
MOLT-4 leukemia
  TGI: > 100 µM
SNB-19 CNS
  TGI: > 100 µM
HOP-62 NSCLC
  TGI: > 100 µM
NCI-H23 lung
  TGI: 42.8 µM
DU-145 prostate
  TGI: > 100 µM
UACC-257 melanoma
  TGI: > 100 µM
NCI-H522 lung
  TGI: 8.87 µM
SK-OV-3 ovarian
  TGI: > 100 µM
MDA-N
  TGI: > 100 µM
U251 CNS
  TGI: 88.4 µM
UACC-62 melanoma
  TGI: 36.8 µM
SK-MEL-5 melanoma
  TGI: > 100 µM
HCT-15 colon
  TGI: 24.2 µM
SNB-75 CNS
  TGI: > 100 µM
SN12C renal
  TGI: 54.4 µM
LOX IMVI melanoma
  TGI: > 100 µM
HL-60(TB) leukemia
  TGI: 77.4 µM
NCI-H460 lung
  TGI: 40.9 µM
MCF7 breast
  TGI: 11.4 µM
SF-539 CNS
  TGI: > 100 µM
SK-MEL-2 melanoma
  TGI: 79.8 µM
T-47D breast
  TGI: 54.5 µM
HCT-116 colon
  TGI: 13.8 µM
NCI-H226 lung
  TGI: > 100 µM
IGROV1 ovarian
  TGI: > 100 µM
HT29 colon
  TGI: 33 µM
SR leukemia
  TGI: > 100 µM
KM12 colon
  TGI: > 100 µM
SF-295 CNS
  TGI: > 100 µM
OVCAR-5 ovarian
  TGI: > 100 µM
A498 renal
  TGI: > 100 µM
SW-620 colon
  TGI: > 100 µM
NCI/ADR-RES ovarian
  TGI: > 100 µM
RPMI-8226 leukemia
  TGI: > 100 µM
M14 melanoma
  TGI: 88.4 µM
A549 NSCLC
  TGI: > 100 µM
ACHN renal
  TGI: > 100 µM
HOP-92 NSCLC
  TGI: > 100 µM
HS 578T breast
  TGI: > 100 µM
786-0 renal
  TGI: 46.7 µM
MDA-MB-435
  TGI: > 100 µM
OVCAR-3 ovarian
  TGI: > 100 µM
MDA-MB-231 breast
  TGI: 89.4 µM
CAKI-1 renal
  TGI: 85.5 µM
OVCAR-4 ovarian
  TGI: > 100 µM
HCC-2998 colon
  TGI: 50.6 µM
UO-31 renal
  TGI: 72.2 µM
EKVX NSCLC
  TGI: 6.38 µM

## Cc1nnc(N)nc1C/C=C/C(Sc1ccc(Cl)cc1)c1ccccc1 (stereo unspecified)
MALME-3M melanoma
  TGI: 14.6 µM
K-562 leukemia
  TGI: > 100 µM
SK-MEL-28 melanoma
  TGI: > 38.1 µM
COLO 205 colon
  TGI: > 41.9 µM
BT-549 breast
  TGI: 27.7 µM
RXF 393 renal
  TGI: 16.2 µM
PC-3 prostate
  TGI: 14.6 µM
SF-268 CNS
  TGI: 21.6 µM
OVCAR-8 ovarian
  TGI: 34.8 µM
TK-10 renal
  TGI: 21.9 µM
MOLT-4 leukemia
  TGI: > 32 µM
SNB-19 CNS
  TGI: 22.7 µM
HOP-62 NSCLC
  TGI: 19.6 µM
NCI-H23 lung
  TGI: 22.2 µM
DU-145 prostate
  TGI: > 45.4 µM
UACC-257 melanoma
  TGI: 17 µM
NCI-H522 lung
  TGI: 3.69 µM
SK-OV-3 ovarian
  TGI: 24.4 µM
MDA-N
  TGI: > 95.9 µM
U251 CNS
  TGI: 26.9 µM
UACC-62 melanoma
  TGI: 10.1 µM
SK-MEL-5 melanoma
  TGI: > 100 µM
HCT-15 colon
  TGI: 15.9 µM
SNB-75 CNS
  TGI: 16.5 µM
SN12C renal
  TGI: > 48.1 µM
LOX IMVI melanoma
  TGI: 7.7 µM
HL-60(TB) leukemia
  TGI: 6.13 µM
NCI-H460 lung
  TGI: 17.3 µM
MCF7 breast
  TGI: > 34.7 µM
SK-MEL-2 melanoma
  TGI: 21 µM
T-47D breast
  TGI: > 48.8 µM
HCT-116 colon
  TGI: > 27.8 µM
NCI-H226 lung
  TGI: 4.64 µM
IGROV1 ovarian
  TGI: 5.37 µM
HT29 colon
  TGI: 25.6 µM
SR leukemia
  TGI: > 100 µM
KM12 colon
  TGI: 15.7 µM
SF-295 CNS
  TGI: 10.9 µM
OVCAR-5 ovarian
  TGI: 23 µM
A498 renal
  TGI: 23.9 µM
SW-620 colon
  TGI: > 39.7 µM
NCI/ADR-RES ovarian
  TGI: > 34.2 µM
RPMI-8226 leukemia
  TGI: > 42.9 µM
M14 melanoma
  TGI: 20.7 µM
A549 NSCLC
  TGI: > 64.7 µM
ACHN renal
  TGI: 18.2 µM
HOP-92 NSCLC
  TGI: 23.7 µM
HS 578T breast
  TGI: 24.6 µM
786-0 renal
  TGI: 11.4 µM
MDA-MB-435
  TGI: 14.9 µM
CCRF-CEM leukemia
  TGI: 3.23 µM
MDA-MB-231 breast
  TGI: > 33.1 µM
CAKI-1 renal
  TGI: > 39.5 µM
OVCAR-4 ovarian
  TGI: 19.6 µM
HCC-2998 colon
  TGI: 23.4 µM
UO-31 renal
  TGI: 12.4 µM
EKVX NSCLC
  TGI: 16.1 µM

## COC(=O)/C(C#N)=C(\Nc1ccccc1)N1CCCC1
MALME-3M melanoma
  TGI: > 100 µM
K-562 leukemia
  TGI: > 100 µM
SK-MEL-28 melanoma
  TGI: > 100 µM
COLO 205 colon
  TGI: > 100 µM
BT-549 breast
  TGI: > 100 µM
RXF 393 renal
  TGI: > 100 µM
PC-3 prostate
  TGI: > 100 µM
SF-268 CNS
  TGI: > 100 µM
OVCAR-8 ovarian
  TGI: > 100 µM
TK-10 renal
  TGI: > 100 µM
MOLT-4 leukemia
  TGI: > 100 µM
SNB-19 CNS
  TGI: > 100 µM
HOP-62 NSCLC
  TGI: > 100 µM
NCI-H23 lung
  TGI: > 100 µM
DU-145 prostate
  TGI: > 100 µM
UACC-257 melanoma
  TGI: > 100 µM
NCI-H522 lung
  TGI: > 100 µM
SK-OV-3 ovarian
  TGI: > 100 µM
MDA-N
  TGI: > 100 µM
U251 CNS
  TGI: > 100 µM
SK-MEL-5 melanoma
  TGI: > 100 µM
HCT-15 colon
  TGI: > 100 µM
SNB-75 CNS
  TGI: > 100 µM
SN12C renal
  TGI: > 100 µM
LOX IMVI melanoma
  TGI: > 100 µM
HL-60(TB) leukemia
  TGI: > 100 µM
NCI-H460 lung
  TGI: > 100 µM
MCF7 breast
  TGI: > 100 µM
SF-539 CNS
  TGI: > 100 µM
SK-MEL-2 melanoma
  TGI: > 100 µM
T-47D breast
  TGI: > 100 µM
HCT-116 colon
  TGI: > 100 µM
NCI-H226 lung
  TGI: > 100 µM
IGROV1 ovarian
  TGI: > 100 µM
HT29 colon
  TGI: > 100 µM
SR leukemia
  TGI: > 100 µM
SF-295 CNS
  TGI: > 100 µM
OVCAR-5 ovarian
  TGI: > 100 µM
A498 renal
  TGI: > 100 µM
SW-620 colon
  TGI: > 100 µM
NCI/ADR-RES ovarian
  TGI: > 100 µM
RPMI-8226 leukemia
  TGI: > 100 µM
M14 melanoma
  TGI: > 100 µM
A549 NSCLC
  TGI: > 100 µM
ACHN renal
  TGI: > 100 µM
HOP-92 NSCLC
  TGI: > 100 µM
HS 578T breast
  TGI: > 100 µM
786-0 renal
  TGI: > 100 µM
MDA-MB-435
  TGI: > 100 µM
OVCAR-3 ovarian
  TGI: > 100 µM
MDA-MB-231 breast
  TGI: > 100 µM
CAKI-1 renal
  TGI: > 100 µM
OVCAR-4 ovarian
  TGI: > 100 µM
HCC-2998 colon
  TGI: > 100 µM
UO-31 renal
  TGI: > 100 µM
EKVX NSCLC
  TGI: > 100 µM
